Test results taken from patent publication US6008234A, “Benzamidine derivatives substituted by cyclic amino acid and cyclic hydroxy acid derivatives and their use as anti-coagulants” (Berlex Laboratories, Inc., priority 1997, dated 1999).
Non-standard residues stand in square brackets, D forms with d. Residues, ends and D or L forms follow the SMILES beside them. *: point of attachment. pNA = O=[N+]([O-])c1ccc(N*)cc1

Columns and labels:
[1] = molecular target: T1, Human tissue plasminogen activator (tPA) (Two chains, Sigma) (Homo sapiens, UniProt P00750); assay: In vitro chromogenic assay for tPA (S2288 cleavage); format: biochemical; details: 10 nM tPA; pH 7.5; ambient temperature; substrate concentration stated equal to Km
T1 construct: purchased Sigma
Experimental: (§1) The activities were determined as an initial rate of cleavage of the peptide p-nitroanilide by the enzyme. The cleavage product, p-nitroaniline, absorbs at 405 nm with a molar extinction coefficient of 9920 M^-1 cm^-1.
(§2) 50 mM TrisHCl, 150 mM NaCl, 2.5 mM CaCl2, and 0.1% polyethylene glycol 6000, pH 7.5.
3. Human tissue plasminogen activator (tPA) (Two chains, Sigma) stock solution: 1 mg/mL, stored at -80° C. (working solution (2×): 1361 ng/mL in assay buffer, prepare prior to use).
3. S2288 (tPA assay) stock solution: 10 mM in deionized H2 O, stored at 4° C. (working solution (4×): 1484 μM in assay buffer).
Assays were performed in 96-well microtiter plates in a total volume of 200 μl. […] Concentrations of the standard inhibitor compound in the assay were from 5 μM to 0.021 μM in 1 to 3 dilution. Concentration of the test compounds in the assay typically were from 10 μM to 0.041 μM in 1 to 3 dilution. […]
(§3) The enzyme kinetics were measured at 405 nm at 10 seconds intervals for five minutes in a THERMOmax plate reader at ambient temperature.
(§4) Enzyme rates were calculated as mOD/min based on the first two minutes readings. The IC50 values were determined by fitting the data to the log-logit equation (linear) or the Morrison equation (non-linear) with an EXCEL spread-sheet. […]

Human thrombin = molecular target: T2, Human thrombin (Homo sapiens, UniProt P00734); assay: In vitro chromogenic assay for thrombin (S2302 cleavage); format: biochemical; details: 20 nM thrombin; pH 7.5; ambient temperature; substrate concentration stated equal to Km
T2 construct: Human thrombin stock solution; purchased Enzyme Research Lab
Experimental: as §1, §2
2. Human thrombin stock solution: Stored at -80° C. (working solution (2×): 1200 ng/mL or 40 nM in assay buffer, prepare prior to use).
2. S2302 (Thrombin assay) stock solution: 10 mM in deionized H2 O, stored at 4° C. (working solution (4×): 1200 μM in assay buffer).
Assays were performed in 96-well microtiter plates in a total volume of 200 μl. […] Concentrations of the standard inhibitor compound in the assay were from 5 μM to 0.021 μM in 1 to 3 dilution. Concentration of the test compounds in the assay typically were from 10 μM to 0.041 μM in 1 to 3 dilution. For potent test compounds, the concentrations used in the factor Xa assay were further diluted 100 fold (100 nM to 0.41 nM) or 1000 fold (10 nM to 0.041 nM). […]
as §3, §4

T1 sequence (P00750 311-562 limits assumed): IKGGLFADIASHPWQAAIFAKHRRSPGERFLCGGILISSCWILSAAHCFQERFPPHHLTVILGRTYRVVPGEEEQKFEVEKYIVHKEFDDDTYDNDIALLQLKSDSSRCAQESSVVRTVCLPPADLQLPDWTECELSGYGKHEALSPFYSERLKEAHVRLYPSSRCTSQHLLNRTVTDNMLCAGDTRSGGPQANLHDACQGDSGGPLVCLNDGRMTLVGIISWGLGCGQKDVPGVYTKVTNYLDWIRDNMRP
T1 sequence (P00750 36-310 limits assumed): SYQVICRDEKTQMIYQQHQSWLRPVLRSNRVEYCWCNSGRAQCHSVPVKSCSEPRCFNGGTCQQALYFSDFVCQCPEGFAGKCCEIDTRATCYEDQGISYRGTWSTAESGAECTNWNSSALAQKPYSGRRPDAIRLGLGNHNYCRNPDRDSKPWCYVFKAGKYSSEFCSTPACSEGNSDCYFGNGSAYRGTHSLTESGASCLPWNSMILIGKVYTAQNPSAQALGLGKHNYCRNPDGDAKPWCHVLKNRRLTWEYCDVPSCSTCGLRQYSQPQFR

Row | Km [1] | Km (Human thrombin) | SMILES
1 | 371 µM | – | CC[C@@H](C)[C@@H](N)C(=O)N1CCC[C@H]1C(=O)N[C@@H](CCCN=C(N)N)C(=O)Nc1ccc([N+](=O)[O-])cc1 [Example S2288] (H-[dI]-Pro-Arg-pNA)
2 | – | 300 µM | N=C(N)NCCC[C@H](NC(=O)[C@H](Cc1ccccc1)NC(=O)[C@H]1CCCN1)C(=O)Nc1ccc([N+](=O)[O-])cc1 [Example S2302] (H-[dP]-Phe-Arg-pNA)
